Data from US7994204B2, “Binding inhibitor of sphingosine-1-phosphate” (Taisho Pharmaceutical Co., Ltd, priority 2006, dated 2011).

The compounds below were run against T1, human Edg-1 (S1P1) (Homo sapiens, UniProt P21453) (assay: S1P1 binding inhibition test (membrane, [33P]-S1P)). Settings: compound 10 μM; [33P]-S1P 0.1 nM; human Edg-1 (S1P1) HEK-293 membrane fraction; read-out: Binding test (membrane) % inhibition (10 μM).
T1 construct: expressed in transfected cells; host or cells: HEK-293
T1 sequence (P21453 whole entry): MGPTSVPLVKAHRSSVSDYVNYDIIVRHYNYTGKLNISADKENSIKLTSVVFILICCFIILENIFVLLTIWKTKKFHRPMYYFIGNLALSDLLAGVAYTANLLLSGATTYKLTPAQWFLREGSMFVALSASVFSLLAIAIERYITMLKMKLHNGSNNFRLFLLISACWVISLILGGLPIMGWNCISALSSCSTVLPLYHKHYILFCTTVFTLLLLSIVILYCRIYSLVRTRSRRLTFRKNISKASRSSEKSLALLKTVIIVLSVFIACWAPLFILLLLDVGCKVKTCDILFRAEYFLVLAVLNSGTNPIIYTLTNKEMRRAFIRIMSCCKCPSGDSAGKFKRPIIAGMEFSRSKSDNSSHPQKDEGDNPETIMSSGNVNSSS
Description: The membrane fraction was obtained by treating the cells with a solubilizing buffer (1 mM Tris/HCl, pH 7.2) for 10 minutes on ice, centrifuging at 1000×g for 5 minutes to remove insoluble fractions, and then centrifuging at 40000×g for 30 minutes at 4° C. The resulting membrane fraction was dissolved in a binding buffer (20 mM Tris-HCl, pH 7.4, 100 mM NaCl, 15 mM NaF, 2 mM deoxypyridoxine, 4 mg/mL fatty acid-free BSA), and then [^33P]-S1P (manufactured by ARC, final concentration 0.1 nM) and a DMSO solution (final concentration of the compound 10^−5 M, final concentration of DMSO 0.1%) of the test compound were added. Thereafter, the mixture was stirred and then treated for one hour at 30° C. Using a harvester, the membrane fraction was harvested onto unifilter-96 GF/C filter (manufactured by Perkin Elmer), washing was carried out four times with the binding buffer, and the filter was dried. Twenty five μL Microscint 0 (manufactured by Perkin Elmer) was added, and radioactivity was measured using Top Count NXT (manufactured by Packard) to calculate the amount (A) of [^33P]-S1P bound to the membrane fraction at the time when the compound was added.
The same procedure was carried out in the absence of the test compound, and the amount (B) of [^33P]-S1P bound was calculated. Further, the same procedure was carried out in the absence of the test compound by use of HEK-293 cells to which no Edg-1 (S1P1) gene was introduced, and the background amount (C) of [^33P]-S1P bound was calculated.
Inhibition rate (%)=[1−(A−C)/(B−C)]×100.
Moreover, the concentration required for a test compound to produce 50% inhibition of the binding caused in the absence of the test compound was also calculated (IC50). The above membrane system binding test was performed in the presence of a test compound at various concentrations to calculate the inhibition rate of Edg-1(S1P1) binding at each concentration according to the above equation, followed by calculating an IC50 value for each compound with data analysis software, Origin (Lightstone Corp., Japan).
For `CCn1c(C(C)NS(=O)(=O)c2ccc(F)c(F)c2F)cnc1Oc1ccc(C)cc1` (stereo not shown) [Compound 90], the inhibition at 10 µM was 78.6%. `CCn1c(C(C)NS(=O)(=O)c2cc(F)c(F)cc2Cl)cnc1Oc1ccc(C)cc1` (stereo not shown) [Compound 93] gave an inhibition at 10 µM of 75.2%. Compound `CCn1c(C(C)NS(=O)(=O)c2ccc(F)c(F)c2)cnc1Oc1ccc(C)cc1` (stereo not shown) [Compound 94] has an inhibition at 10 µM of 86.5%. Compound `CCn1c(C(C)NS(=O)(=O)c2ccc(Br)cc2F)cnc1Oc1ccc(C)cc1` (stereo not shown) [Compound 95] has an inhibition at 10 µM of 80.1%. For `CCn1c(C(C)NS(=O)(=O)c2cc(F)c(Cl)cc2F)cnc1Oc1ccc(C)cc1` (stereo not shown) [Compound 96], the inhibition at 10 µM was 80.4%. `CCn1c(C(C)NS(=O)(=O)c2cc(C)c(Cl)cc2Cl)cnc1Oc1ccc(C)cc1` (stereo not shown) [Compound 101] showed an inhibition at 10 µM of 107%. `CCn1c(C(C)NS(=O)(=O)c2c(F)c(Br)cc(F)c2Br)cnc1Oc1ccc(C)cc1` (stereo not shown) [Compound 102] gave an inhibition at 10 µM of 78.2%. For `CCn1c(C(C)NS(=O)(=O)c2c(F)cccc2F)cnc1Oc1ccc(C)cc1` (stereo not shown) [Compound 103], the inhibition at 10 µM was 53%. With `CCn1c(C(C)NS(=O)(=O)c2cc(C(F)(F)F)ccc2Cl)cnc1Oc1ccc(C)cc1` (stereo not shown) [Compound 104] the inhibition at 10 µM was 70.9%. `CCn1c(C(C)NS(=O)(=O)c2cccc(F)c2)cnc1Oc1ccc(C)cc1` (stereo not shown) [Compound 105] gave an inhibition at 10 µM of 84.2%. `CCn1c(C(C)NS(=O)(=O)c2cc(Cl)ccc2OC)cnc1Oc1ccc(C)cc1` (stereo not shown) [Compound 107] was tested, and the inhibition at 10 µM was 79.8%. `CCn1c(C(C)NS(=O)(=O)c2c(C)cc(Cl)cc2Cl)cnc1Oc1ccc(C)cc1` (stereo not shown) [Compound 108] gave an inhibition at 10 µM of 81.3%. `CCn1c(C(C)NS(=O)(=O)c2cc(F)c(F)cc2F)cnc1Oc1ccc(C)cc1` (stereo not shown) [Compound 109] gave an inhibition at 10 µM of 81.3%. Compound `CCn1c(C(C)NS(=O)(=O)c2cc(Br)ccc2Br)cnc1Oc1ccc(C)cc1` (stereo not shown) [Compound 110] has an inhibition at 10 µM of 86.4%. `CCn1c(C(C)NS(=O)(=O)c2ccc(-c3ccno3)s2)cnc1Oc1ccc(C)cc1` (stereo not shown) [Compound 111] showed an inhibition at 10 µM of 59.6%. `CCn1c(C(C)NS(=O)(=O)c2ccc(Br)cc2Br)cnc1Oc1ccc(C)cc1` (stereo not shown) [Compound 113] gave an inhibition at 10 µM of 77.8%. `CCn1c(C(C)NS(=O)(=O)c2ccc(F)c(C#N)c2)cnc1Oc1ccc(C)cc1` (stereo not shown) [Compound 114] was tested, and the inhibition at 10 µM was 96.8%. `CCn1c(C(C)NS(=O)(=O)c2cc(C)cc(C)c2)cnc1Oc1ccc(C)cc1` (stereo not shown) [Compound 115] showed an inhibition at 10 µM of 92.9%. Compound `CCn1c(C(C)NS(=O)(=O)c2ccc(OC(F)F)cc2)cnc1Oc1ccc(C)cc1` (stereo not shown) [Compound 116] has an inhibition at 10 µM of 78.2%. Compound `CCn1c(C(C)NS(=O)(=O)c2cccc(OC(F)F)c2)cnc1Oc1ccc(C)cc1` (stereo not shown) [Compound 117] has an inhibition at 10 µM of 87.3%. Work on `CCn1c(C(C)NS(=O)(=O)c2c(F)cc(F)cc2Br)cnc1Oc1ccc(C)cc1` (stereo not shown) [Compound 118] yielded an inhibition at 10 µM of 62.5%. `CCn1c(C(C)NS(=O)(=O)c2cc(F)cc(F)c2)cnc1Oc1ccc(C)cc1` (stereo not shown) [Compound 119] gave an inhibition at 10 µM of 91.1%. With `CCn1c(C(C)NS(=O)(=O)c2ccc(Cl)cc2F)cnc1Oc1ccc(C)cc1` (stereo not shown) [Compound 120] the inhibition at 10 µM was 81.2%. `CCn1c(C(C)NS(=O)(=O)c2cc(F)c(F)c(F)c2)cnc1Oc1ccc(C)cc1` (stereo not shown) [Compound 121] was tested, and the inhibition at 10 µM was 101%. `CCn1c(C(C)NS(=O)(=O)c2ccc(Br)c(C)c2)cnc1Oc1ccc(C)cc1` (stereo not shown) [Compound 122] showed an inhibition at 10 µM of 100%. For `CCn1c(C(C)NS(=O)(=O)c2ccc(F)cc2Br)cnc1Oc1ccc(C)cc1` (stereo not shown) [Compound 123], the inhibition at 10 µM was 70.6%. Work on `CCn1c(C(C)NS(=O)(=O)c2ccc(C(F)(F)F)cc2Br)cnc1Oc1ccc(C)cc1` (stereo not shown) [Compound 124] yielded an inhibition at 10 µM of 65.6%. With `CCn1c(C(C)NS(=O)(=O)c2ccc(C)c(F)c2)cnc1Oc1ccc(C)cc1` (stereo not shown) [Compound 126] the inhibition at 10 µM was 99.3%. `CCn1c(C(C)NS(=O)(=O)c2ccc(F)cc2C)cnc1Oc1ccc(C)cc1` (stereo not shown) [Compound 127] was tested, and the inhibition at 10 µM was 86.4%. Compound `CCn1c(C(C)NS(=O)(=O)c2cc(Cl)ccc2F)cnc1Oc1ccc(C)cc1` (stereo not shown) [Compound 128] has an inhibition at 10 µM of 65.6%. `CCn1c(C(C)NS(=O)(=O)c2ccc(Br)c(F)c2)cnc1Oc1ccc(C)cc1` (stereo not shown) [Compound 129] gave an inhibition at 10 µM of 102%. `CCn1c(C(C)NS(=O)(=O)c2ccc(Br)cc2Cl)cnc1Oc1ccc(C)cc1` (stereo not shown) [Compound 130] showed an inhibition at 10 µM of 77.5%. Work on `CCn1c(C(C)NS(=O)(=O)c2ccc(C)c(C)c2)cnc1Oc1ccc(C)cc1` (stereo not shown) [Compound 133] yielded an inhibition at 10 µM of 104%. In the case of `CCn1c(C(C)NS(=O)(=O)c2cc(C)ccc2F)cnc1Oc1ccc(C)cc1` (stereo not shown) [Compound 134], the inhibition at 10 µM is reported as 81%. For `CCn1c(C(C)NS(=O)(=O)c2cccc(Cl)c2F)cnc1Oc1ccc(C)cc1` (stereo not shown) [Compound 135], the inhibition at 10 µM was 83.4%. Compound `CCn1c(C(C)NS(=O)(=O)c2cc(C)oc2C(F)(F)F)cnc1Oc1ccc(C)cc1` (stereo not shown) [Compound 143] has an inhibition at 10 µM of 58.8%. With `CCn1c(C(C)NS(=O)(=O)c2ccc3c(c2)OCCO3)cnc1Oc1ccc(C)cc1` (stereo not shown) [Compound 144] the inhibition at 10 µM was 94.1%. In the case of `CCn1c(C(C)NS(=O)(=O)c2cccc3nsnc23)cnc1Oc1ccc(C)cc1` (stereo not shown) [Compound 146], the inhibition at 10 µM is reported as 57.8%. With `CCn1c(C(C)NS(=O)(=O)c2ccc3nsnc3c2)cnc1Oc1ccc(C)cc1` (stereo not shown) [Compound 147] the inhibition at 10 µM was 73.2%. `CCn1c(C(C)NS(=O)(=O)c2ccc(C(F)(F)F)cc2Cl)cnc1Oc1ccc(C)cc1` (stereo not shown) [Compound 158] was tested, and the inhibition at 10 µM was 57%. `CCn1c(C(C)NS(=O)(=O)c2cccc(C(C)=O)c2)cnc1Oc1ccc(C)cc1` (stereo not shown) [Compound 161] gave an inhibition at 10 µM of 71.2%. `CCn1c(C(C)NS(=O)(=O)c2ccc(F)c3ccccc23)cnc1Oc1ccc(C)cc1` (stereo not shown) [Compound 162] was tested, and the inhibition at 10 µM was 70.2%. For `CCc1ccc(OC)c(S(=O)(=O)NC(C)c2cnc(Oc3ccc(C)cc3)n2CC)c1` (stereo not shown) [Compound 166], the inhibition at 10 µM was 80.7%. For `CCn1c(C(C)NS(=O)(=O)c2cccc3cnccc23)cnc1Oc1ccc(C)cc1` (stereo not shown) [Compound 169], the inhibition at 10 µM was 62%. With `CCn1c(C(C)NS(=O)(=O)c2ccc(Br)c(C(F)(F)F)c2)cnc1Oc1ccc(C)cc1` (stereo not shown) [Compound 172] the inhibition at 10 µM was 75.9%. In the case of `CCn1c(C(C)NS(=O)(=O)c2cc3ccccc3s2)cnc1Oc1ccc(C)cc1` (stereo not shown) [Compound 177], the inhibition at 10 µM is reported as 77.7%. In the case of `CCn1c(C(C)NS(=O)(=O)c2csc3ccccc23)cnc1Oc1ccc(C)cc1` (stereo not shown) [Compound 178], the inhibition at 10 µM is reported as 64.2%. Work on `CCn1c(Oc2ccc(C)cc2)cnc1C(C)NS(=O)(=O)c1ccc(Cl)c(Cl)c1` (stereo not shown) [Compound 179, 3,4-Dichloro-N-[1-(1-ethyl-5-(4-methylphenoxy)-1H-imidazol-2-yl)-ethyl]-benzenesulfonamide] yielded an inhibition at 10 µM of 95.9%. With `CCn1c(C(C)NS(=O)(=O)c2ccc(Cl)c(Cl)c2)cnc1Oc1cccc(N2CCN(C)CC2)c1` (stereo not shown) [Compound 184, 3,4-Dichloro-N-(1-{3-ethyl-2-[3-(4-methylpiperazin-1-yl)-phenoxy]-3H-imidazol-4-yl}-ethyl)-benzenesulfonamide] the inhibition at 10 µM was 95.3%. `CCn1c(C(C)NS(=O)(=O)c2ccc(Cl)c(Cl)c2)cnc1Oc1ccc(Cl)cc1` (stereo not shown) [Compound 189, 3,4-Dichloro-N-{1-[3-ethyl-2-(4-chlorophenoxy)-3H-imidazol-4-yl]-ethyl}-benzenesulfonamide] showed an inhibition at 10 µM of 97.2%. `CCC(NS(=O)(=O)c1ccc(Cl)c(Cl)c1)c1cnc(Oc2ccc(F)cc2)n1CC` (stereo not shown) [Compound 191, 3,4-Dichloro-N-{1-[3-ethyl-2-(4-fluorophenoxy)-3H-imidazol-4-yl]-propyl}-benzenesulfonamide] gave an inhibition at 10 µM of 100%. For `CCn1c(C(C)NS(=O)(=O)c2ccc(Cl)c(Cl)c2)cnc1Oc1cccc(NS(C)(=O)=O)c1` (stereo not shown) [Compound 234, 3,4-Dichloro-N-{1-[3-ethyl-2-(3-methanesulfonylaminophenoxy)-3H-imidazol-4-yl]-ethyl}-benzenesulfonamide], the inhibition at 10 µM was 98.1%. Compound `CCn1c(C(C)NS(=O)(=O)c2ccc(Cl)c(Cl)c2)cnc1Sc1ccc(C)cc1` (stereo not shown) [Compound 241, 3,4-Dichloro-N-[1-(3-ethyl-2-p-tolylsulfanyl-3H-imidazol-4-yl)-ethyl]-benzenesulfonamide] has an inhibition at 10 µM of 82.6%. For `CCn1c(C(C)N(C)S(=O)(=O)c2ccc(Cl)c(Cl)c2)cnc1Oc1ccc(Cl)cc1` (stereo not shown) [Compound 248, 3,4-Dichloro-N-{1-[2-(4-chlorophenoxy)-3-ethyl-3H-imidazol-4-yl]-ethyl}-N-methyl-benzenesulfonamide], the inhibition at 10 µM was 90.2%. In the case of `CCn1c(C(C)NS(=O)(=O)c2ccc(Cl)c(Cl)c2)cnc1Oc1cccc(-n2cccc2)c1` (stereo not shown) [Compound 249, 3,4-Dichloro-N-{1-[3-ethyl-2-(3-pyrrol-1-yl-phenoxy)-3H-imidazol-4-yl]-ethyl}-benzenesulfonamide], the inhibition at 10 µM is reported as 100%.

Same assay, conditions: membrane system binding test, various concentrations
In the case of `CCn1c(C(C)NS(=O)(=O)c2ccc(Cl)c(Cl)c2)cnc1Oc1cccc(N2CCN(C)CC2)c1` (stereo not shown) [Compound 184, 3,4-Dichloro-N-(1-{3-ethyl-2-[3-(4-methylpiperazin-1-yl)-phenoxy]-3H-imidazol-4-yl}-ethyl)-benzenesulfonamide], the IC50 is reported as 14.3 nM. Compound `CCn1c(C(C)NS(=O)(=O)c2ccc(Cl)c(Cl)c2)cnc1Oc1ccc(Cl)cc1` (stereo not shown) [Compound 189, 3,4-Dichloro-N-{1-[3-ethyl-2-(4-chlorophenoxy)-3H-imidazol-4-yl]-ethyl}-benzenesulfonamide] has an IC50 of at most 70 nM. Work on `CCn1c(C(C)NS(=O)(=O)c2ccc(Cl)c(Cl)c2)cnc1Oc1cccc(NS(C)(=O)=O)c1` (stereo not shown) [Compound 234, 3,4-Dichloro-N-{1-[3-ethyl-2-(3-methanesulfonylaminophenoxy)-3H-imidazol-4-yl]-ethyl}-benzenesulfonamide] yielded an IC50 of at most 35 nM.
